The structures appear in SMILES notation.

Emax and IC50 data for 27 compounds are collected here from patent US11524938B2, “Aromatic sulfonamide derivatives” (Bayer Pharma Aktiengesellschaft, priority 2016, dated 2022).

The target in the test is T1, human P2X4 (Homo sapiens, UniProt Q99571).
T1 sequence (Q99571 1-388): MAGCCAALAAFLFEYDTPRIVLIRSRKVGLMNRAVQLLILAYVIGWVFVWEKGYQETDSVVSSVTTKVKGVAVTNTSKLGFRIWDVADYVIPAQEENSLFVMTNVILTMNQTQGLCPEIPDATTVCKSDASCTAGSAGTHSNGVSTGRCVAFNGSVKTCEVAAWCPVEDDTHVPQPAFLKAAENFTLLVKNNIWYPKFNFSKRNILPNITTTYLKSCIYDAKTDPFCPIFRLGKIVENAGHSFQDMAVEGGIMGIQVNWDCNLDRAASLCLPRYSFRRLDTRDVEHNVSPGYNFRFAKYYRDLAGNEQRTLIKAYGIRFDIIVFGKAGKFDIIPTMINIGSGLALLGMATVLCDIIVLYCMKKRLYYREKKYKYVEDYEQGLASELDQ
In words: Human P2X4 HEK Cell FLIPR Assay. The note with it: agonist Bz-ATP at EC80; for Emax: HEK293, HEK293 cells, percentage of maximal inhibition, read-out: Human P2X4 HEK Cells (FLIPR Assay) avg Efficacy [%]; for IC50: HEK293 cells, individual values listed where some fall outside detection range. It is filed as cell-based. The procedure: HEK293 cells stably expressing human P2X4 were plated in poly-D-lysine-coated 384-well plates at a seeding density of 30000 cells/well and incubated overnight. P2X4 function was assessed by measuring intracellular calcium changes using the calcium-chelating dye Fluo8-AM (Molecular Devices) on a fluorescent imaging plate reader (FLEX/FLIPR station; Molecular Devices). On the day of the assay, the medium was removed and the cells were incubated for 30 min at 37° C. and 5% CO2 in 30 μL of dye buffer (Hank's balanced salt solution, 10 mM HEPES, 1.8 mM CaCl2, 1 mM MgCl2, 2 mM probenecid, 5 mM D-glucose monohydrate, 5 μM Fluo8-AM, pH=7.4). Compounds diluted in probenecid buffer (Hank's balanced salt solution, 10 mM HEPES, 1.8 mM CaCl2, 1 mM MgCl2, 2 mM probenecid, 5 mM D-glucose monohydrate, pH=7.4) were added in a volume of 10 μL and allowed to incubate for 30 min at room temperature. The final assay DMSO concentration was 0.5%. The agonist, Bz-ATP (Tocris), was added in a volume of 10 μL at a concentration representing the EC80 value. The EC80 value of Bz-ATP was determined each assay day prior to compound profiling. The fluorescence was measured for an interval of 120 sec at 2 sec intervals. The excitation and emission wavelengths used to monitor fluorescence were 470-495 nm and 515-575 nm, respectively. The data was analyzed based on the increase in peak relative fluorescence units (RFU) compared to the basal fluorescence and the data was normalized to the agonist control. The compounds were tested in triplicates per plate and mean values were plotted in Excel XLFit to determine IC50 values, percentage of maximal inhibition and the Hill coefficients.

As usually defined, the IC50 is the midpoint of a concentration-inhibition curve. A low value points to inhibition by little substance. As for `CC(C)(C)c1ncn(-c2ccc(NC(=O)Cc3ccccc3Cl)cc2S(N)(=O)=O)n1` [Example 23, N-[4-(3-tert-Butyl-1H-1,2,4-triazol-1-yl)-3-sulfamoylphenyl]-2-(2-chlorophenyl)-acetamide], the Emax was 89% and the IC50 was determined as 1180 nM.

With `NS(=O)(=O)c1cc(NC(=O)Cc2ccccc2Cl)ccc1-n1cc(Cl)cn1` [Example 25, 2-(2-Chlorophenyl)-N-[4-(4-chloro-1H-pyrazol-1-yl)-3-sulfamoylphenyl]acetamide], the Emax amounted to 93%. Regarding `CC(C)Oc1cnn(-c2ccc(NC(=O)Cc3ccccc3Cl)cc2S(N)(=O)=O)c1` [Example 27, 2-(2-Chlorophenyl)-N-[4-(4-isopropoxy-1H-pyrazol-1-yl)-3-sulfamoylphenyl]-acetamide], the Emax is 74% and the IC50 amounted to 70 nM. With `CC(C)Cc1ncn(-c2ccc(NC(=O)Cc3ccccc3Cl)cc2S(N)(=O)=O)n1` [Example 29, 2-(2-Chlorophenyl)-N-[4-(3-isobutyl-1H-1,2,4-triazol-1-yl)-3-sulfamoylphenyl]-acetamide], the Emax was 75% and the IC50 came out at 113 nM. For `CSc1cnn(-c2ccc(NC(=O)Cc3ccccc3Cl)cc2S(N)(=O)=O)c1` [Example 30, 2-(2-Chlorophenyl)-N-{4-[4-(methylsulfanyl)-1H-pyrazol-1-yl]-3-sulfamoylphenyl}-acetamide], the Emax was determined as 87% and the IC50 stood at 222 nM. `COc1cnn(-c2ccc(NC(=O)Cc3ccccc3Cl)cc2S(N)(=O)=O)c1` [Example 31, 2-(2-Chlorophenyl)-N-[4-(4-methoxy-1H-pyrazol-1-yl)-3-sulfamoylphenyl]acetamide]: the Emax amounted to 81% and the IC50 stood at 112 nM.

For `NS(=O)(=O)c1cc(NC(=O)Cc2ccccc2Cl)ccc1-n1cnc2ccccc21` [Example 32, N-[4-(1H-Benzimidazol-1-yl)-3-sulfamoylphenyl]-2-(2-chlorophenyl)acetamide], the Emax is 93% and the IC50 is 139 nM.

Turning to `NS(=O)(=O)c1cc(NC(=O)Cc2ccccc2Cl)ccc1-n1cnc(Cl)c1` [Example 33, N-[4-(4-Chloro-1H-imidazol-1-yl)-3-sulfamoylphenyl]-2-(2-chlorophenyl)acetamide], the Emax worked out at 79% and the IC50 turned out to be 31 nM.

For `CN(C)c1ncn(-c2ccc(NC(=O)Cc3ccccc3Cl)cc2S(N)(=O)=O)n1` [Example 34, 2-(2-Chlorophenyl)-N-{4-[3-(dimethylamino)-1H-1,2,4-triazol-1-yl]-3-sulfamoyl-phenyl}acetamide], the Emax turned out to be 79% and the IC50 is 448 nM. On the same counts, the results for `CCc1ncn(-c2ccc(NC(=O)Cc3ccccc3Cl)cc2S(N)(=O)=O)n1` [Example 35, 2-(2-Chlorophenyl)-N-[4-(3-ethyl-1H-1,2,4-triazol-1-yl)-3-sulfamoylphenyl]acetamide] are 90% and 224 nM. For `NS(=O)(=O)c1cc(NC(=O)Cc2ccccc2Cl)ccc1-n1cnc(C2CC2)n1` [Example 36, (2-Chlorophenyl)-N-[4-(3-cyclopropyl-1H-1,2,4-triazol-1-yl)-3-sulfamoylphenyl]-acetamide], the Emax was 81% and the IC50 amounted to 667 nM. The corresponding values for `NS(=O)(=O)c1cc(NC(=O)Cc2ccccc2Cl)ccc1-n1ncnc1C1CC1` [Example 37, 2-(2-Chlorophenyl)-N-[4-(5-cyclopropyl-1H-1,2,4-triazol-1-yl)-3-sulfamoyl-phenyl]acetamide] are 81% and 848 nM.

As for `COCc1ncn(-c2ccc(NC(=O)Cc3ccccc3Cl)cc2S(N)(=O)=O)n1` [Example 38, 2-(2-Chlorophenyl)-N-{4-[3-(methoxymethyl)-1H-1,2,4-triazol-1-yl]-3-sulfamoyl-phenyl}acetamide], the Emax came to 87% and the IC50 was found to be 329 nM. On the same counts, the results for `CC(C)(C)c1cn(-c2ccc(NC(=O)Cc3ccccc3Cl)cc2S(N)(=O)=O)cn1` [Example 40, N-[4-(4-tert-Butyl-1H-imidazol-1-yl)-3-sulfamoylphenyl]-2-(2-chlorophenyl)acetamide] are 90% and 1240 nM.

As to `N#Cc1ncn(-c2ccc(NC(=O)Cc3ccccc3Cl)cc2S(N)(=O)=O)n1` [Example 41, 2-(2-Chlorophenyl)-N-[4-(3-cyano-1H-1,2,4-triazol-1-yl)-3-sulfamoylphenyl]acetamide], the Emax came out at 70% and the 50% inhibitory concentration (IC50) is 357 nM. On to `NS(=O)(=O)c1cc(NC(=O)Cc2ccccc2Cl)ccc1-n1cnc(Br)c1` [Example 42, N-[4-(4-Bromo-1H-imidazol-1-yl)-3-sulfamoylphenyl]-2-(2-chlorophenyl)acetamide], for which the Emax was found to be 71% and the IC50 stood at 24 nM. For `NS(=O)(=O)c1cc(NC(=O)Cc2ccccc2Cl)ccc1-n1cnc2cccnc21` [Example 43, 2-(2-Chlorophenyl)-N-[4-(3H-imidazo[4,5-b]pyridin-3-yl)-3-sulfamoylphenyl]-acetamide], the Emax worked out at 87% and the IC50 was 210 nM.

Consider `NS(=O)(=O)c1cc(NC(=O)Cc2ccccc2Cl)ccc1-n1cnc2ncccc21` [Example 44, 2-(2-Chlorophenyl)-N-[4-(1H-imidazo[4,5-b]pyridin-1-yl)-3-sulfamoylphenyl]-acetamide], for which the Emax came out at 97% and the IC50 is 378 nM. On the same counts, the results for `NS(=O)(=O)c1cc(NC(=O)Cc2ccccc2Cl)ccc1-n1cnc2cnccc21` [Example 45, 2-(2-Chlorophenyl)-N-[4-(1H-imidazo[4,5-c]pyridin-1-yl)-3-sulfamoylphenyl]-acetamide] are 74% and 75 nM. As for `NS(=O)(=O)c1cc(NC(=O)Cc2ccccc2Cl)ccc1-n1cnc2ccncc21` [Example 46, 2-(2-Chlorophenyl)-N-[4-(3H-imidazo[4,5-c]pyridin-3-yl)-3-sulfamoylphenyl]-acetamide], the Emax is 87% and the 50% inhibitory concentration (IC50) is 916 nM. Regarding `Cc1cn(-c2ccc(NC(=O)Cc3ccccc3Cl)cc2S(N)(=O)=O)c(C)n1` [Example 47, 2-(2-Chlorophenyl)-N-[4-(2,4-dimethyl-1H-imidazol-1-yl)-3-sulfamoylphenyl]-acetamide], the Emax stood at 66% and the half-maximal inhibitory concentration (IC50) was determined as 472 nM. `NS(=O)(=O)c1cc(NC(=O)Cc2ccccc2F)ccc1-n1cc(F)cn1` [Example 48, 2-(2-Fluorophenyl)-N-[4-(4-fluoro-1H-pyrazol-1-yl)-3-sulfamoylphenyl]acetamide]: the Emax worked out at 82% and the IC50 worked out at 297 nM.

As for `NS(=O)(=O)c1cc(NC(=O)Cc2ccccc2C(F)F)ccc1-n1cc(Cl)cn1` [Example 49, N-[4-(4-Chloro-1H-pyrazol-1-yl)-3-sulfamoylphenyl]-2-[2-(difluoromethyl)-phenyl]acetamide], the Emax amounted to 94% and the 50% inhibitory concentration (IC50) turned out to be 135 nM. Turning to `NS(=O)(=O)c1cc(NC(=O)Cc2ccccc2F)ccc1-n1cc(Cl)cn1` [Example 50, N-[4-(4-Chloro-1H-pyrazol-1-yl)-3-sulfamoylphenyl]-2-(2-fluorophenyl)acetamide], the Emax worked out at 88% and the IC50 was determined as 149 nM. Consider `NS(=O)(=O)c1cc(NC(=O)Cc2ccccc2C(F)F)ccc1-n1cc(F)cn1` [Example 51, 2-[2-(Difluoromethyl)phenyl]-N-[4-(4-fluoro-1H-pyrazol-1-yl)-3-sulfamoyl-phenyl]acetamide], for which the Emax came to 94% and the IC50 came out at 134 nM. With `N#Cc1cnn(-c2ccc(NC(=O)Cc3ccccc3F)cc2S(N)(=O)=O)c1` [Example 52, N-[4-(4-Cyano-1H-pyrazol-1-yl)-3-sulfamoylphenyl]-2-(2-fluorophenyl)acetamide], the Emax came out at 82% and the IC50 turned out to be 154 nM. For `COc1ccccc1CC(=O)Nc1ccc(-n2cnc(C(F)(F)F)n2)c(S(N)(=O)=O)c1` [Example 53, 2-(2-Methoxyphenyl)-N-{3-sulfamoyl-4-[3-(trifluoromethyl)-1H-1,2,4-triazol-1-yl]-phenyl}acetamide], the Emax stood at 52% and the IC50 was found to be 169 nM.
